Measurements as given in paper PMC12767106, “In Situ Assembly of Transformable Monopeptide on Activated Neutrophils Attenuates NETs‐Induced Hepatocellular Carcinoma Metastasis by Disrupting NE Nuclear Translocation” (Advanced Science, 2025).

Legend:
[1] = Particle diameter by DLS and TEM; assay type: physicochemical; settings: 20 µM NPs in H2O:DMSO 99:1, before interaction with NE
Description: Submitted to Advanced Science
We obtained hepatocellular carcinoma (TCGA-LIHC) transcriptomic data from the Cancer Genome Atlas (TCGA) database (https://portal.gdc.cancer.gov/), quantified as transcripts per million (TPM). Tumor samples with complete clinical annotations (overall survival (OS), age, stage, etc.) were retained for further analysis.
Another HCC gene expression profile under the accession number E-TABM-36, containing 44 samples with available survival prognosis information, was obtained from the EBI Array database (https://www.ebi.ac.uk/arrayexpress/) as a validation set. […]
after being further diluted with DMSO (995, 795, 595, 395, 195, 95, 15, and 0 μL). To confirm the generation of NPs, measurements were made of the ultraviolet-visible (UV-vis) absorbance (UV-2600i, Japan) at approximately 410 nm and the fluorescence spectra (Cary 5000, Malaysia) at approximately 635 nm of solutions with different water contents. […]
temperature. […] In addition, the variation of fluorescence emission spectra of PpIX by […]
(§1) Pyrene molecules were employed as an indicator to determine the critical aggregation concentration (CAC) of nanoparticles by comparing the fluorescence of their third and first emissive peaks. […] The fluorescence spectra of pyrene (excitation, 335 nm) in different NPs dilutions were recorded. […]

[2] = Critical aggregation concentration, pyrene probe; assay type: physicochemical; settings: I3/I1 ratio, excitation 335 nm, 37 °C, 2 h, NPs 0.01-50 µM
Description: Submitted to Advanced Science temperature. Following the incubation, 10 µL of the solution was added to a copper mesh at 0 and 24 h. Filter paper was used to remove any extra droplets after an overnight stay. The samples were then stained for five minutes with uranyl acetate and then rinsed for one minute with water (10 µL). Finally, dried samples were observed by TEM (Talos 120C, Thermo Fisher Scientific, USA). DLS (Zetasizer Nano ZS, UK) was used to assess the solution for hydrodynamic size and zeta potential at 0 and 24 h following the incubation. Then, the nanofiber structure at 0 h and 24 h after incubation of FTP-NPs was examined with Circular Dichroism (CD) Spectra (Chirascan, UM, Britain). In addition, the variation of fluorescence emission spectra of PpIX by […]
transformation of FTP-NPs.
as §1, with “recorded. The fluorescence intensity ratio (I3/I1) of the third and first emissive peaks was measured for CAC calculation.” for “recorded.”

Substance | diameter [1] | critical aggregation concentration (CAC) [2]
PpIX-GFFVLK-EAIPMSIPPEVK [FTP-NPs] | 24.27±4.50 nm and ≈ 25 nm | 5.45 µM
PpIX-GGGAAK-EAIPMSIPPEVK [NFTP-NPs, nanoparticles of the non-fibrillar transformable control peptide NFTP] | 26.13±3.23 nm | 3.75 µM
